System: GADD153 mRNA
Assay: Change in GADD153 mRNA in tumor biopsies of head and neck cancer patients after cDDP-based treatment
Assay type: in vivo, human
Conditions: 24 h after start of first course
Experimental: The present inventors have also discovered that the prognostic method for clinical response by a tumor to a chemotherapeutic agent can accurately predict a corresponding therapeutic response by a patient even though there exist several sources for potential variation. The relationship between the change in GADD153 mRNA level at 24 h after the start of the first course of treatment with cDDP or cDDP plus radiation therapy and subsequent tumor clinical response to this therapy in 32 patients with stage IV head and neck cancer was examined.
Thirty-two patients with previously untreated stage IV head and neck cancer were treated at the UCSD Cancer Center on a phase I/II experimental protocol. All patients had been considered to have unresectable tumors. All patients received i.a. cDDP (150-200 mg/M^2) and i.v. sodium thiosulfate infusion concurrently. The details of this treatment program have been published elsewhere by the present inventors (17,18), which description is specifically incorporated herein by reference. cDDP was dissolved in 400 ml of 0.9% saline and infused over 3-5 minutes through a microcatheter placed angiographically to selectively encompass the dominant blood supply of the targeted tumor. Simultaneous with the cDDP infusion, sodium thiosulfate was infused i.v. at a dose of 9 g/m^2 dissolved in 300 ml of distilled water over 3 minutes, followed by 12 g/m^2 dissolved in one liter of distilled water over 6 h by continuous infusion to prevent severe nephrotoxicity. Treatment was repeated weekly for a total of 4 doses. […] Tumor response was assessed at 2 months using criteria based on physical examination, repeat computed tomography/magnetic resonance imaging studies, and repeat endoscopy and biopsy. […]
GADD153 message levels were quantified using a modification of the technique reported by Horikoshi et al (20). […] PCR products were separated on a 8 M (6%) acrylamide gel and analyzed using a Molecular Imaging System (BioRad, Hercules, Calif.). […]

Question: With [NH2][Pt]([NH2])([Cl])[Cl] [cDDP, cisplatin] as the compound, how does the “magnitude of increase, above baseline, in GADD153 mRNA, mean (SD)” value (“magnitude of increase, above baseline … (SD)” for short) (CR group (17 patients)) read?
Answer: 3.8±2.2 fold

Question: What about the “magnitude of increase, above baseline … (SD)” value (NR group (7 patients with tumor progression)) of the same compound?
Answer: 0.8±0.5 fold

Question: What about the “magnitude of increase, above baseline … (SD)” value (PR group, all 8 patients) of the same compound?
Answer: 1.6±0.9 fold
